In ChEMBL document CHEMBL5661943, “ASAP - In vitro antiviral effect” (2024):
Several values for one entry are separate records, joined by “and”; a condition that tells them apart may be missing. Identical values can stand only once.

What was measured:
Zika virus [1] = assay: EC50 is reported via analysis of immunofluorescence staining. The assay has been performed by Icahn School of Medicine at Mount Sinai.; type: functional, organism-based, Chlorocebus sabaeus, VeroE6/TMPRSS2; settings: for EC90: P-gp concentration 2 uM, P-gp inhibitor Elacidar
dengue virus type 2 [2] = assay: (§1) Functional immunofluorescence assay to measure dose dependent changes in antiviral-drug inhibitory efficacy against Dengue virus type 2 Thailand/16681/84 in Vero E6/TMPRSS2 cells (cotreated with P-gp inhibitor, Elacridar). Cells are treated with antiviral candidates that are serially diluted, following infection, cells are fixed. EC50 is reported via analysis of immunofluorescence staining. The assay has been performed by Icahn School of Medicine at Mount Sinai.; type: organism-based, Chlorocebus sabaeus, VeroE6/TMPRSS2
Zika virus [3] = assay: Functional CPE-based assay to measure dose dependent changes in antiviral-drug inhibitory efficacy against Zika virus MR766 in Vero E6 miRFP670 cells. Cells are treated with antiviral candidates that are serially diluted. EC50 is reported via analysis of MTS assay as a readout of CPE. The assay has been performed by KU Leuven.; type: organism-based, Chlorocebus sabaeus, Vero C1008; settings: Zika virus; for EC50: Vero C1008
dengue virus type 2 [4] = assay: Functional assay to measure dose dependent changes in antiviral-drug inhibitory efficacy against Dengue virus type 2 New Guinea C in Vero E6 miRFP670 cells (cotreated with P-gp inhibitor, CP100356). Cells are treated with antiviral candidates that are serially diluted, following infection, cells are fixed. EC50 is reported via analysis of fluorescence intensity using high-content imager. The …; type: organism-based, Chlorocebus sabaeus, Vero C1008; settings: Dengue virus
Zika virus [5] = assay: as §1, with “Zika” for “Dengue”, “PRVABC59” for “type 2 Thailand/16681/84”, “cells.” for “cells (cotreated with P-gp inhibitor, Elacridar).”; type: organism-based, Chlorocebus sabaeus
dengue virus type 2 [6] = assay: as §1, with “cells.” for “cells (cotreated with P-gp inhibitor, Elacridar).”; type: organism-based, Chlorocebus sabaeus

SMILES: CC(C)(C)NC(=O)[C@H](Nc1cccc(-c2nn[nH]n2)c1)c1cc(Cl)cc(NC(=O)OCc2ccccc2)c1
- EC50 (Zika virus [1]; Zika virus, VeroE6/TMPRSS2): 37.4 µM
- EC90 (Zika virus [1]; Zika virus, VeroE6/TMPRSS2, Baseline response 0 %, Hill slope -8.55, Maximum measured 97.768 %, Maximum response 77.157 %, Minimum measured 5.982 %, R squared 0.78): 48.4 µM
- EC50 (dengue virus type 2 [2]; Dengue virus, VeroE6/TMPRSS2): > 50 µM
- EC90 (dengue virus type 2 [2]; Dengue virus, VeroE6/TMPRSS2, Maximum measured 98.938 %, Minimum measured 28.549 %, P-gp concentration 2 uM, P-gp inhibitor Elacidar): > 50 µM
- EC50 (Zika virus [3]): 49.8 µM
- EC90 (Zika virus [3]; Vero C1008, Baseline response 0 %, Hill slope 4.346, Maximum measured 50.323 %, Maximum response 100 %, Minimum measured -0.582 %, R squared 0.944): > 50 µM
- EC50 (dengue virus type 2 [4]; Vero C1008): 50 µM
- EC90 (dengue virus type 2 [4]; Vero C1008, Baseline response 0 %, Hill slope -29.373, Maximum measured 114.47 %, Maximum response 100 %, Minimum measured 52.367 %, P-gp concentration 500 nM, R squared 0.626, P-gp inhibitor CP100356): > 50 µM

SMILES: CC(C)c1nc2c(C(=O)Nc3ccc4c(c3)CNC4)cc(Br)cc2[nH]1
- EC50 (Zika virus [1]; Zika virus, VeroE6/TMPRSS2): > 5.56 µM
- EC90 (Zika virus [1]; Zika virus, VeroE6/TMPRSS2, Baseline response 0 %, Hill slope 0.282, Maximum measured 117.995 %, Maximum response 100 %, Minimum measured 67.231 %, R squared 0.042): > 5.56 µM
- EC50 (dengue virus type 2 [2]; Dengue virus, VeroE6/TMPRSS2): > 16.7 µM
- EC90 (dengue virus type 2 [2]; Dengue virus, VeroE6/TMPRSS2, Maximum measured 259.996 %, Minimum measured 97.005 %, P-gp concentration 2 uM, P-gp inhibitor Elacidar): > 16.7 µM
- EC50 (Zika virus [3]): < 0.391 µM
- EC90 (Zika virus [3]; Vero C1008, Baseline response 0 %, Hill slope -0.56, Maximum measured 41.831 %, Maximum response 100 %, Minimum measured -11.106 %, R squared 0.026): < 0.391 µM
- EC50 (dengue virus type 2 [4]; Vero C1008): > 3.12 µM
- EC90 (dengue virus type 2 [4]; Vero C1008, Maximum measured 127.324 %, Minimum measured 101.275 %, P-gp concentration 500 nM, P-gp inhibitor CP100356): > 3.12 µM

SMILES: O=C(Nc1cc(Cl)cc(C(=O)Nc2cccc(-n3nn[nH]c3=O)c2)c1)OCc1ccccc1
- EC50 (Zika virus [1]; Zika virus, VeroE6/TMPRSS2): 0.828 µM
- EC90 (Zika virus [1]; Zika virus, VeroE6/TMPRSS2, Baseline response 0 %, Hill slope -0.989, Maximum measured 91.506 %, Maximum response 100 %, Minimum measured 6.41 %, R squared 0.606): > 5.56 µM
- EC50 (dengue virus type 2 [2]; Dengue virus, VeroE6/TMPRSS2): 38.1 µM
- EC90 (dengue virus type 2 [2]; Dengue virus, VeroE6/TMPRSS2, Baseline response 0 %, Hill slope -4.745, Maximum measured 70.688 %, Maximum response 60 %, Minimum measured 12.915 %, P-gp concentration 2 uM, R squared 0.282, P-gp inhibitor Elacidar): > 50 µM
- EC50 (Zika virus [3]): > 50 µM
- EC90 (Zika virus [3]; Vero C1008, Baseline response 0 %, Hill slope -0.529, Maximum measured 3.199 %, Maximum response 100 %, Minimum measured -1.205 %, R squared 0.435): > 50 µM
- EC50 (Zika virus [5]; VeroE6/TMPRSS2): 45.7 µM
- EC90 (Zika virus [5]; VeroE6/TMPRSS2, Baseline response 0 %, Hill slope -14.888, Maximum measured 123.167 %, Maximum response 100 %, Minimum measured 20.725 %, R squared 0.524): > 50 µM
- EC50 (dengue virus type 2 [4]; Vero C1008): 44.1 µM
- EC90 (dengue virus type 2 [4]; Vero C1008): 48.8 µM

SMILES: O=C(Nc1cc(Cl)cc(C(=O)Nc2cccc(C3CCNCC3)c2)c1)OCc1ccccc1
- EC50 (Zika virus [1]; Zika virus, VeroE6/TMPRSS2): 3.24 µM
- EC90 (Zika virus [1]; Zika virus, VeroE6/TMPRSS2, Maximum measured 120.28 %, Minimum measured 106.347 %): > 1.85 µM
- EC90 (Zika virus [1]; Zika virus, VeroE6/TMPRSS2, Baseline response 0 %, Hill slope -10.935, Maximum measured 129.824 %, Maximum response 100 %, Minimum measured 42.275 %, R squared 0.16): > 3.33 µM
- EC50 (Zika virus [1]; veroe6/tmprss2): > 1.85 µM
- EC90 (dengue virus type 2 [2]; Baseline response 0 %, Hill slope -7.018, Maximum measured 136.667 %, Maximum response 100 %, Minimum measured 60.314 %, P-gp concentration 2 uM, R squared 0.441, P-gp inhibitor Elacidar): > 1.85 µM
- EC50 (dengue virus type 2 [2]; Dengue virus, VeroE6/TMPRSS2): 3.24 µM
- EC90 (dengue virus type 2 [2]; Dengue virus, VeroE6/TMPRSS2, Baseline response 0 %, Hill slope -0.392, Maximum measured 120.272 %, Maximum response 100 %, Minimum measured 45.482 %, P-gp concentration 2 uM, R squared 0.27, P-gp inhibitor Elacidar): > 3.33 µM
- EC50 (dengue virus type 2 [2]; veroe6/tmprss2): > 1.85 µM
- EC50 (Zika virus [3]): > 50 µM
- EC90 (Zika virus [3]; Vero C1008, Maximum measured 1.3 %, Minimum measured -10.726 %): > 50 µM
- EC50 (dengue virus type 2 [4]; Vero C1008): 4.04 µM
- EC90 (dengue virus type 2 [4]; Vero C1008, Baseline response 0 %, EC90 CI (lower) 2.724 uM, EC90 CI (upper) 4.009 uM, Hill slope -10.989, Maximum measured 107.904 %, Maximum response 100 %, Minimum measured 0.838 %, P-gp concentration 500 nM, R squared 0.983, P-gp inhibitor CP100356): 4.93 µM

SMILES: NCc1cccc(C(=O)Nc2cc(Cl)cc(NC(=O)OCc3ccccc3)c2)c1
- EC90 (Zika virus [1]; Baseline response 0 %, Hill slope -0.985, Maximum measured 92.072 %, Maximum response 100 %, Minimum measured 6.61 %, R squared 0.567): > 5.56 µM
- EC90 (Zika virus [1]; Zika virus, VeroE6/TMPRSS2, Baseline response 0 %, Hill slope -0.721, Maximum measured 131.562 %, Maximum response 100 %, Minimum measured 27.938 %, R squared 0.396): > 3.33 µM
- EC50 (Zika virus [1]; veroe6/tmprss2): 2.1 µM and 0.867 µM
- EC50 (dengue virus type 2 [2]; Dengue virus, VeroE6/TMPRSS2): 3.17 µM
- EC90 (dengue virus type 2 [2]; Dengue virus, VeroE6/TMPRSS2): 5.42 µM
- EC50 (dengue virus type 2 [6]; VeroE6/TMPRSS2): > 5.56 µM
- EC90 (dengue virus type 2 [6]; VeroE6/TMPRSS2, Maximum measured 181.372 %, Minimum measured 88.426 %): > 5.56 µM

SMILES: O=C(O)COc1cccc(NC(=O)c2cc(Cl)cc(NC(=O)OCc3ccccc3)c2)c1
- EC50 (Zika virus [1]; Zika virus, VeroE6/TMPRSS2): > 50 µM
- EC90 (Zika virus [1]; Zika virus, VeroE6/TMPRSS2, Baseline response 0 %, Hill slope 0.101, Maximum measured 106.686 %, Maximum response 100 %, Minimum measured 54.693 %, R squared 0.072): > 50 µM
- EC50 (dengue virus type 2 [2]; Dengue virus, VeroE6/TMPRSS2): > 50 µM
- EC90 (dengue virus type 2 [2]; Dengue virus, VeroE6/TMPRSS2, Maximum measured 97.013 %, Minimum measured 38.667 %, P-gp concentration 2 uM, P-gp inhibitor Elacidar): > 50 µM
- EC50 (Zika virus [3]): > 50 µM
- EC90 (Zika virus [3]; Vero C1008, Maximum measured -[…], Minimum measured -2.209 %): > 50 µM
- EC50 (dengue virus type 2 [4]; Vero C1008): > 50 µM
- EC90 (dengue virus type 2 [4]; Vero C1008, Maximum measured 107.555 %, Minimum measured 104.836 %, P-gp concentration 500 nM, P-gp inhibitor CP100356): > 50 µM
